Our source for the GI50 and IC50 values is patent US20260365670A1, “EGFR INHIBITORS AND USES THEREOF” (DIZAL (JIANGSU) PHARMACEUTICAL CO., LTD., priority 2022, published 2026).

The subject of assay [1] is PC-9. Nature of the assay: Cell proliferation assay, PC-9 cells (CellTiter-Glo, 72 hours). The assay is classed as cell-based. The settings on record: PC9 cells, read-out: GI50 PC9. The method in brief: (§1)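 Seed Ba/F3 at 5000 cells/well and PC-9 at 500 cells/well (10% FBS RPMI1640); incubate overnight; add compound dilution series; read a G0 plate; incubate; read G3; GI50 from best-fit curve.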
On the technique in general: ATP-based viability assays read luminescence as a measure of living cells.

The target of assay [2] is T1, EGFR (C797S L858R) (Homo sapiens, UniProt P00533, C797S/L858R).
T1 construct: purchased signalchem
Nature of the assay: Inhibition of EGFR (C797S L858R) biochemical enzymatic activity (HTRF). The settings on record: 1 mM ATP. The method in brief: (§2)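 Recombinant kinases phosphorylated 1 μM biotinylated TK substrate with 1 mM ATP in buffer with 5 mM MgCl2, 1 mM MnCl2, 0.01% CHAPS, 1 mM DTT, 0.5% DMSO. Reaction ran 1 h at room temperature, stopped with EDTA-containing detection mix. HTRF 665/615 nm ratio gave IC50 via four-parameter logistic fit.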
Background: In TR-FRET formats the signal depends on donor and acceptor labels being close together.

Assay [3] concerns the target T2, EGFR wild type (Homo sapiens, UniProt P00533).
T2 construct: purchased Carna Bio
Nature of the assay: Inhibition of EGFR wild type biochemical enzymatic activity (HTRF). The settings on record: 1 mM ATP. The gist of the method: as §2

Assay [4] addresses T3, EGFR Exon19Del (Homo sapiens, UniProt P00533, DEL746-750).
T3 construct: purchased Carna Bio
Nature of the assay: Inhibition of EGFR Exon19Del biochemical enzymatic activity (HTRF). The method in brief:
as §2

The target of assay [5] is T4, EGFR L858R (Homo sapiens, UniProt P00533, L858R).
T4 construct: purchased Carna Bio
Kind of assay: Inhibition of EGFR L858R biochemical enzymatic activity (HTRF). The settings on record: 1 mM ATP. The method in brief:
as §2

Assay [6] addresses T5, EGFR[T790M/C797S/L858R] (Homo sapiens, UniProt P00533, C797S/L858R/T790M).
T5 construct: purchased Carna Bio
Nature of the assay: Inhibition of EGFR[T790M/C797S/L858R] biochemical enzymatic activity (HTRF). The settings on record: 1 mM ATP. The method in brief:
as §2

The test system of assay [7] is A-431. Kind of assay: Cell proliferation assay, A-431 cells (GI50, Table 6). The assay is classed as cell-based. The settings on record: Homo sapiens, A-431, A-431 cells. Here is the method: [Worded in the source for another cell line; this cell line is reported under the same test.] Ba/F3 cells expressing EGFR mutations were seeded in 384-well plates at 5000 cells/well in RPMI1640 medium containing […]. PC-9 at 500 cells/well was seeded into 384-well plates in RPMI1640 medium with 10% FBS. After overnight incubation, the assay plates were dosed with compounds at a series of concentrations. Alongside dosing the assay plates, the day 0 plate was processed using CellTiter-Glo® Luminescent Cell Viability Assay (Promega) to measure the number of viable cells (G0). The assay plates were further incubated for 72 hours and the number of viable cells (G3) was measured. The percentage of proliferation was calculated as: […]=100×(G3 value of sample well−G0 value)/(G3 value of DMSO control−G0 value). The concentration of compound producing 50% proliferation inhibition (GI50) was further calculated in best-fit curves using XLFit software. N/A=not available.

Assay [8] has as its system Ba/F3 cells expressing EGFR mutations. Nature of the assay: Cell proliferation assay, Ba/F3 cells expressing EGFR mutations (CellTiter-Glo, 72 hours). The assay is classed as cell-based. The gist of the method:
as §1

In assay [9] the target is T6, EGFR[T790M/C797S/d746-750] (Homo sapiens, UniProt P00533, C797S/DEL746-750/T790M).
T6 construct: purchased Carna Bio
Kind of assay: Inhibition of EGFR[T790M/C797S/d746-750] biochemical enzymatic activity (HTRF). The method in brief:
as §2

Assay [10] has as its target T7, EGFR Exon19Del/T790M (Homo sapiens, UniProt P00533, DEL746-750/T790M).
T7 construct: purchased Carna Bio
Nature of the assay: Inhibition of EGFR Exon19Del/T790M biochemical enzymatic activity (HTRF). The settings on record: 1 mM ATP. The method in brief: as §2

Assay [11] concerns the target T8, EGFR (d746-750 C797S) (Homo sapiens, UniProt P00533, C797S/DEL746-750).
T8 construct: purchased signalchem
Kind of assay: Inhibition of EGFR (d746-750 C797S) biochemical enzymatic activity (HTRF). The settings on record: 1 mM ATP. The gist of the method: as §2

Assay [12] has as its target T9, EGFR L858R/T790M (Homo sapiens, UniProt P00533, L858R/T790M).
T9 construct: purchased Carna Bio
Kind of assay: Inhibition of EGFR L858R/T790M biochemical enzymatic activity (HTRF). The settings on record: 1 mM ATP. The method in brief: as §2

Where two headings read alike, the source gives them in different places.

T2 sequence (P00533 25-1210): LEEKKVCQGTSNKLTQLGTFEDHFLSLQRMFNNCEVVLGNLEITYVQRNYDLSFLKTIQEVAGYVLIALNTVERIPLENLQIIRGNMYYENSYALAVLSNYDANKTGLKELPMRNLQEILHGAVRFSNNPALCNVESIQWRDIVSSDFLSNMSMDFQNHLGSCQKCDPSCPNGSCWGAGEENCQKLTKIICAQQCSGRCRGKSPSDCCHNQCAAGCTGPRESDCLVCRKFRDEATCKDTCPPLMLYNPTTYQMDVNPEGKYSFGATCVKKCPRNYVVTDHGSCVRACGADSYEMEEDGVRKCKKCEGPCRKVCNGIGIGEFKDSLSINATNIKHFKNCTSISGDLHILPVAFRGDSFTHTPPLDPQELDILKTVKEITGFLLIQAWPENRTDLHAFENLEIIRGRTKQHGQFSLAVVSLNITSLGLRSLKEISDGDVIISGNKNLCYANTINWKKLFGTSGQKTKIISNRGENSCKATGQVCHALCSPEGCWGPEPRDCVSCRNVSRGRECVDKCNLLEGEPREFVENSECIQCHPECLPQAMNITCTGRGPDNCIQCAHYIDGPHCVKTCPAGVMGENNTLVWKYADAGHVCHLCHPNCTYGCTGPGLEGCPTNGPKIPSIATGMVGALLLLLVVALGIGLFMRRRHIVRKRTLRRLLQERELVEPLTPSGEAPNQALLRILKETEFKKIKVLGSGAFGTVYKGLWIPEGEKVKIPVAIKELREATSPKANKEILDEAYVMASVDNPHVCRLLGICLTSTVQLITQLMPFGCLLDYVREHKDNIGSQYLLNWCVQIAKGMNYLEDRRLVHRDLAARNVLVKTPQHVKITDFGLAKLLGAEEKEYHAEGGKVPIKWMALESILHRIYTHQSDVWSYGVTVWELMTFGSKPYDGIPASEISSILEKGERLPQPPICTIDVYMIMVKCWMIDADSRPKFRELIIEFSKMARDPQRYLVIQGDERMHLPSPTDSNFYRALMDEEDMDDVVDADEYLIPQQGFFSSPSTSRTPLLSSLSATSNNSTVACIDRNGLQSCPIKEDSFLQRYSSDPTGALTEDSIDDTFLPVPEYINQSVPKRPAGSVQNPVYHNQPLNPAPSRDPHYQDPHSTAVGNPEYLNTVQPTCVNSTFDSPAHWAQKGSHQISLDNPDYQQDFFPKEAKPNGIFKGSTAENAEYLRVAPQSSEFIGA
T9 sequence (P00533 25-1210 T790M/L858R): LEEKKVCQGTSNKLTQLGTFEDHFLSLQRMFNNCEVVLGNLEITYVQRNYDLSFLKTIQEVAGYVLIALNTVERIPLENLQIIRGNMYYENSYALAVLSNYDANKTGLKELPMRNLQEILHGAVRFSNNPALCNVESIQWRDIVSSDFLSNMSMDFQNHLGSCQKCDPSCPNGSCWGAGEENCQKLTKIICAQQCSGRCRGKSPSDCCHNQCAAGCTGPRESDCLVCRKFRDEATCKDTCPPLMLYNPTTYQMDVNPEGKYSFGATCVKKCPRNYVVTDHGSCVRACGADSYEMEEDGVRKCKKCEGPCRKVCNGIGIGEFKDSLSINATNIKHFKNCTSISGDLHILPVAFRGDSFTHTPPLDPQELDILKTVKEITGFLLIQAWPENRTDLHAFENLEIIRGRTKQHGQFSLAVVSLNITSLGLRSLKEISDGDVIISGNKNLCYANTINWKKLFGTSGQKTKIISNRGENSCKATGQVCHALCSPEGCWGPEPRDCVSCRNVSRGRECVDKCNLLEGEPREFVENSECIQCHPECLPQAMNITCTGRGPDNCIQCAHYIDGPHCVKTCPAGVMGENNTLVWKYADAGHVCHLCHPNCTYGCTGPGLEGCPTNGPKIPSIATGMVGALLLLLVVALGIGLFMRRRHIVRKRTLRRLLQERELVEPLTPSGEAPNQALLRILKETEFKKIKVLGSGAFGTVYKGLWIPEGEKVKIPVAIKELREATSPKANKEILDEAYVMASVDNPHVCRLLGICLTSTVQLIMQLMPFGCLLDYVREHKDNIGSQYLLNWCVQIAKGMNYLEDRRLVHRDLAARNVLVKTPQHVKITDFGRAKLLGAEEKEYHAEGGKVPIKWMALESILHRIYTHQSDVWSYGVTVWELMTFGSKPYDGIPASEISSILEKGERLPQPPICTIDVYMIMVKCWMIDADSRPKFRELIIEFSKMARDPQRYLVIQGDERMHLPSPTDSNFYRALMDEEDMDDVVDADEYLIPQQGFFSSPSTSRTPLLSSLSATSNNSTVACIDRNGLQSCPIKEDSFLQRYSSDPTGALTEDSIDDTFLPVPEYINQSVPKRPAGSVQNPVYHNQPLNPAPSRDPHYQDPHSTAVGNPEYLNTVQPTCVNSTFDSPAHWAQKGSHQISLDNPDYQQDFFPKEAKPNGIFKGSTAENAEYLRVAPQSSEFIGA
T1 sequence (P00533 25-1210 C797S/L858R): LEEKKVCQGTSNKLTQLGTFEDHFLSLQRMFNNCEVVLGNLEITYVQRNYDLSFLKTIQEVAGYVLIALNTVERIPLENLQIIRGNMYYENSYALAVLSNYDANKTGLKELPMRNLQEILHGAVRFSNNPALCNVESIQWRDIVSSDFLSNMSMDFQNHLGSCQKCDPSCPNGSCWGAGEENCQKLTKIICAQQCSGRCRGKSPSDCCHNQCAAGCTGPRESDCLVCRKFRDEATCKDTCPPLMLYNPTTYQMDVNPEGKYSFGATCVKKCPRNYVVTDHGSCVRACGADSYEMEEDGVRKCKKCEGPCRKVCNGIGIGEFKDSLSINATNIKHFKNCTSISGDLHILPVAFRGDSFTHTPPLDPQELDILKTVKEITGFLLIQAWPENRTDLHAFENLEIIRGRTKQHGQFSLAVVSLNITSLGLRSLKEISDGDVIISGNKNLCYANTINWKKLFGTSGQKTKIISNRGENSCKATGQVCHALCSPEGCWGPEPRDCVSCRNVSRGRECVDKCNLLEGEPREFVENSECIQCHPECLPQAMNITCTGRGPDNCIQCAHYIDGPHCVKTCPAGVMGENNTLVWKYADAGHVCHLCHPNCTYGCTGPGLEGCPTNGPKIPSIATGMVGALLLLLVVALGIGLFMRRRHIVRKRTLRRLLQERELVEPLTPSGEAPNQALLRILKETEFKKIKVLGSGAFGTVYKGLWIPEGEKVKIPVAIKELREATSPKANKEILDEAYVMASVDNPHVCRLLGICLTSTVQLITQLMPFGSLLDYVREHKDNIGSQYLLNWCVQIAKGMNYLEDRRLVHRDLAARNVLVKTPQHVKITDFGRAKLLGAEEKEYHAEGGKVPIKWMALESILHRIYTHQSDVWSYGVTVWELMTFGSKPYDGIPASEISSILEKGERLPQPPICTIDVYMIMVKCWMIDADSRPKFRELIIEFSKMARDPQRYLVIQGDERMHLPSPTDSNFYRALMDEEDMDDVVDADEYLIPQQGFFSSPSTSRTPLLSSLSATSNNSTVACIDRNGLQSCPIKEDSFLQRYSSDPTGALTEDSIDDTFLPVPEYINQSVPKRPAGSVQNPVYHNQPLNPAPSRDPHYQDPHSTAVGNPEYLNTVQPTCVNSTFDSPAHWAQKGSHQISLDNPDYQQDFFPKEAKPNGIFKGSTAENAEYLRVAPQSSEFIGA
T6 sequence (P00533 with tags, fused parts or gaps DEL746-750/T790M/C797S limits assumed): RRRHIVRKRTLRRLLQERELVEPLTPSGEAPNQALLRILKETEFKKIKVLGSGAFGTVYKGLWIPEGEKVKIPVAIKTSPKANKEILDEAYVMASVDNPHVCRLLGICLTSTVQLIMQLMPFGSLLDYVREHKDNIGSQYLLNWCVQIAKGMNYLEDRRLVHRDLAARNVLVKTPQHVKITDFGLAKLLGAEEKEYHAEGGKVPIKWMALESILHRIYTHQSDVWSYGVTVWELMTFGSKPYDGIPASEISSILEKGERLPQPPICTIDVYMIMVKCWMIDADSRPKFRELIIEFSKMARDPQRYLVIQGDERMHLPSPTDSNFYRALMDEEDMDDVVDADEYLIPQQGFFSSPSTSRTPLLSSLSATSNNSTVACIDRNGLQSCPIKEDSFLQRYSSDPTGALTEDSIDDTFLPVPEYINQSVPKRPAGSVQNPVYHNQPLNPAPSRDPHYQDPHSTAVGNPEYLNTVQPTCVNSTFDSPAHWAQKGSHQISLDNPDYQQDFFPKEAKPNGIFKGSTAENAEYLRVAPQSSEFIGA
T7 sequence (P00533 with tags, fused parts or gaps DEL746-750/T790M limits assumed): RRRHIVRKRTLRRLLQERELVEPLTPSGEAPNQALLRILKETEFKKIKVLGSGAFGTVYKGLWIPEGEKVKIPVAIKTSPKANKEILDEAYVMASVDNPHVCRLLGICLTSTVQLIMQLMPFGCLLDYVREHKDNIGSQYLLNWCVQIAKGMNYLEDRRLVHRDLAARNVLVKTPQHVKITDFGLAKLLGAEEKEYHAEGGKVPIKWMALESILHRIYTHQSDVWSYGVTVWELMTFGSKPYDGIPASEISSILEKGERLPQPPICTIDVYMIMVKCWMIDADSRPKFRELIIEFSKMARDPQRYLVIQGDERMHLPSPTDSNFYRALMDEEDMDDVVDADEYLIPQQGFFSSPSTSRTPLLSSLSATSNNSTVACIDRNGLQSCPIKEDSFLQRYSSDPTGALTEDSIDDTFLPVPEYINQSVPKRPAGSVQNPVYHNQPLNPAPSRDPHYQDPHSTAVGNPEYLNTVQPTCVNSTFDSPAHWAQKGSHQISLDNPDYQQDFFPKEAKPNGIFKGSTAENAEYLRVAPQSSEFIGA

On to `Cc1cc2cc(n1)-c1cnn(C)c1OCCN1CC3CCC(C3)(C1)n1c(nc3ccc(N4CCC(N(C)C)CC4)cc31)NC2=O` (single isomer, unassigned) [Example B40B, 5-[4-(dimethylamino)piperidin-1-yl]-15,21-dimethyl-23-oxa-2,9,11,16,20,21,26-heptaazaheptacyclo[24.4.1.1^{1,28}.1^{13,17}.0^{2,10}.0^{3,8}.0^{18,22}]tritriaconta-3,5,7,9,13,15,17(33),18(22),19-nonaen-12-one], for which the GI50 in assay [1] was 9 nM; in assay [7] it was 333 nM; in assay [8] (BaF3 cells, EGFR DEL19 - C797S, read-out: GI50 DEL19 - C797S/BaF3) it was 2 nM; in assay [8] (BaF3 cells, EGFR DEL19 - T790-C797S, read-out: GI50 DEL19 - T790-C797S/BaF3) it was 2 nM; in [8] (BaF3 cells, EGFR L858R - C797S, read-out: GI50 L858R - C797S/BaF3), 6 nM; in [8] (BaF3 cells, EGFR L858R - T790-C797S, read-out: GI50 L858R - T790-C797S/BaF3), 2 nM. For the same molecule, the GI50 was found to be 2 nM in assay [8] (BaF3 cells, EGFR L858R - T790M, read-out: GI50 L858R - T790M/BaF3); 8 nM in assay [8] (BaF3 cells, EGFR L858R, read-out: GI50 L858R/BaF3); 2 nM in assay [8] (EGFR DEL19 - T790M, read-out: GI50 DEL19 - T790M). Besides, the IC50 (in general, the concentration that inhibits the measured activity by half) in assay [2] (IC50 @L858-C797S, EGFR (C797S L858R), 1 h at room temperature) came to 4.4 nM; in assay [3] (IC50 @WT, EGFR wild type, 1 h at room temperature) it was 100 nM; in [4] (IC50 @Del19, EGFR Exon19Del, 1 mM ATP, 1 h at room temperature), 4.5 nM; in assay [5] (IC50 @L858R, 1 h at room temperature), 15 nM; in assay [6] (IC50 @T790M- C797S - L858R, EGFR[T790M/C797S/L858R], 1 h at room temperature), 2.4 nM; in assay [9] (IC50 @T790M - C797S - Del19, EGFR[T790M/C797S/d746-750], 1 mM ATP, 1 h at room temperature), 2.3 nM. In addition, the IC50 in assay [10] (IC50 @Del19-T790M, EGFR Exon19Del/T790M, 1 h at room temperature) is 4.7 nM; in assay [11] (IC50 @Del19-C797S, EGFR (d746-750 C797S), 1 h at room temperature), 2.2 nM; in assay [12] (IC50 @L858R-T790M, EGFR L858R/T790M, 1 h at room temperature), 3.3 nM.
Regarding `C[C@@H]1CCCOc2ccccc2-c2cc(cn(C)c2=O)C(=O)Nc2nc3ccc(N4CCN(C)CC4)cc3n2C1` [Example A109, (12R)-12,27-dimethyl-17-(4-methylpiperazin-1-yl)-8-oxa-14,21,23,27-tetraazapentacyclo[23.3.1.0^{2,7}.0^{14,22}.0^{15,20}]nonacosa-1(29),2(7),3,5,15,17,19,21,25-nonaene-24,28-dione], the GI50 in assay [1] (Homo sapiens, PC-9, 72 h) is 15 nM; in assay [7], 489 nM; in assay [8] (Mus musculus, BaF3, 72 h, BaF3 cells, EGFR DEL19 - C797S, read-out: GI50 DEL19 - C797S/BaF3) it was 1.7 nM; in assay [8] (Mus musculus, BaF3, 72 h, BaF3 cells, EGFR DEL19 - T790-C797S, read-out: GI50 DEL19 - T790-C797S/BaF3), 15 nM; in assay [8] (Mus musculus, BaF3, 72 h, BaF3 cells, EGFR L858R - C797S, read-out: GI50 L858R - C797S/BaF3), 23 nM; in [8] (Mus musculus, BaF3, 72 h, BaF3 cells, EGFR L858R - T790-C797S, read-out: GI50 L858R - T790-C797S/BaF3) it was 27 nM. Besides, the GI50 stood at 34 nM in assay [8] (Mus musculus, BaF3, 72 h, BaF3 cells, EGFR L858R - T790M, read-out: GI50 L858R - T790M/BaF3); 21 nM in [8] (Mus musculus, BaF3, 72 h, BaF3 cells, EGFR L858R, read-out: GI50 L858R/BaF3); 16 nM in assay [8] (Mus musculus, BaF3, 72 h, EGFR DEL19 - T790M, read-out: GI50 DEL19 - T790M). Also, the IC50 was determined as 9.8 nM in assay [2] (EGFR L858-C797S, 1 h, room temperature, read-out: IC50 (nM) @L858-C797S); 219 nM in assay [3] (EGFR WT, 1 h, room temperature, read-out: IC50 (nM) @WT); 4.7 nM in assay [4] (EGFR Del19, 1 mM ATP, 1 h, room temperature, read-out: IC50 @Del19); 16 nM in assay [5] (1 h, room temperature, read-out: IC50 (nM) @L858R); 10 nM in [6] (EGFR T790M-C797S-L858R, 1 h, room temperature, read-out: IC50 (nM) @T790M- C797S - L858R); 7.6 nM in assay [9] (EGFR T790M-C797S-Del19, 1 mM ATP, 1 h, room temperature, read-out: IC50 (nM) @T790M - C797S - Del19). Besides, the IC50 in assay [10] (EGFR Del19-T790M, 1 h, room temperature, read-out: IC50 (nM) @Del19-T790M) stood at 7.9 nM; in assay [11] (EGFR Del19-C797S, 1 h, room temperature, read-out: IC50 (nM) @Del19-C797S), 3.1 nM; in assay [12] (EGFR L858R-T790M, 1 h, room temperature, read-out: IC50 (nM) @L858R-T790M) it was 11 nM.
